Columns and labels:
Format in all cases: cell-based
MOLM-13 cells = test: MOLM-13 cell viability assay (CellTiter-Glo); conditions: Homo sapiens, MOLM-13, 72 h, 3 days, read-out: MOLM-13 Cell Viability % DMSO at 1 μM
Experimental: MOLM-13 cells were cultured in RPMI 1640 media supplemented with 10% fetal bovine serum, streptomycin and penicillin, and were plated in walled 96-well plates at 2500 cells/well. Cells were incubated in DMSO (control) or the indicated compound for 3 days at 37° C. and 5% CO2. Following the incubation period, 100 μL of CellTiterGlow (CTG) reagent (CellTiter-Glo® Luminescent Cell Viability Assay, Promega (Madison, Wis.)) was added to each well. Following a 10 minutes incubation with shaking, luminescence was measured using the EnVision Multimode plate reader.
The MOLM-13 cell viability values as % DMSO are reported as “A”, “B”, “C”, or “D”. “A” represents a % viability value of less than 50% (value <50%). “B” represents a % viability value of equal to or more than 50% and less than 70% (50%≤value<70%). “C” represents a % viability value of equal to or more than 70% and less than 90% (70%≤value<90%). “D” represents a % viability value of equal or more than 90% (value ≥90%).

IKAROS = target: T1, IKAROS (Homo sapiens, UniProt Q13422+Q96SW2); test: IKAROS degradation assay (Western blot, MV-4-11 cells); conditions: MV4-11, 6-8 h
T1 construct: endogenous in cells; host or cells: MV-4-11
T1 sequence (Q13422 whole entry): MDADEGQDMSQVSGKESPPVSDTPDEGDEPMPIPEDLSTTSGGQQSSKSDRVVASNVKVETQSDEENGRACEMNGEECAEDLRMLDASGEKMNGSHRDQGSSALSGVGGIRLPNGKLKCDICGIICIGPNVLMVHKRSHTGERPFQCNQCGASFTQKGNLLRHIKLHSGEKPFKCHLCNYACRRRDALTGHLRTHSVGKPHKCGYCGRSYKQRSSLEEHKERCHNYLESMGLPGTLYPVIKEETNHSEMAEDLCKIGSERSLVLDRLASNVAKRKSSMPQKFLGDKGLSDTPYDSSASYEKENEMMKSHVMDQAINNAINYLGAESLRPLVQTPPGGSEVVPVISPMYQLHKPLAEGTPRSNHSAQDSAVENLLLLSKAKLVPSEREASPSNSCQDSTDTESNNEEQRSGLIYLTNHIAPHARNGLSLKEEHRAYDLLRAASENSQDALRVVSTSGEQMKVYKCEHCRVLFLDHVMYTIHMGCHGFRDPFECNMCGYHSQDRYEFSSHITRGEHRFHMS
T1 sequence (Q96SW2 whole entry): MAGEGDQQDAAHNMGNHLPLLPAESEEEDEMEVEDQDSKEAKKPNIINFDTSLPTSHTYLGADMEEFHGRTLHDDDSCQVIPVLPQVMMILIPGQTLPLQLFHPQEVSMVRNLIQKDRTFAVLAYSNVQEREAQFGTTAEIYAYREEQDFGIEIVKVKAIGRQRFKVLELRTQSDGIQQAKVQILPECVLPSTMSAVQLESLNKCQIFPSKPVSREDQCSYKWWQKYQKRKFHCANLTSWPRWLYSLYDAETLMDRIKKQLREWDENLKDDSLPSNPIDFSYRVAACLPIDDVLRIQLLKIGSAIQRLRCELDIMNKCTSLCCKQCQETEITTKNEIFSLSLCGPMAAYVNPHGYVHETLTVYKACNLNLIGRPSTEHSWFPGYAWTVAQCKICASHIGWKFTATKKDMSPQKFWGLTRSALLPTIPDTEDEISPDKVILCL
T1 sequence (Q16531 whole entry partner): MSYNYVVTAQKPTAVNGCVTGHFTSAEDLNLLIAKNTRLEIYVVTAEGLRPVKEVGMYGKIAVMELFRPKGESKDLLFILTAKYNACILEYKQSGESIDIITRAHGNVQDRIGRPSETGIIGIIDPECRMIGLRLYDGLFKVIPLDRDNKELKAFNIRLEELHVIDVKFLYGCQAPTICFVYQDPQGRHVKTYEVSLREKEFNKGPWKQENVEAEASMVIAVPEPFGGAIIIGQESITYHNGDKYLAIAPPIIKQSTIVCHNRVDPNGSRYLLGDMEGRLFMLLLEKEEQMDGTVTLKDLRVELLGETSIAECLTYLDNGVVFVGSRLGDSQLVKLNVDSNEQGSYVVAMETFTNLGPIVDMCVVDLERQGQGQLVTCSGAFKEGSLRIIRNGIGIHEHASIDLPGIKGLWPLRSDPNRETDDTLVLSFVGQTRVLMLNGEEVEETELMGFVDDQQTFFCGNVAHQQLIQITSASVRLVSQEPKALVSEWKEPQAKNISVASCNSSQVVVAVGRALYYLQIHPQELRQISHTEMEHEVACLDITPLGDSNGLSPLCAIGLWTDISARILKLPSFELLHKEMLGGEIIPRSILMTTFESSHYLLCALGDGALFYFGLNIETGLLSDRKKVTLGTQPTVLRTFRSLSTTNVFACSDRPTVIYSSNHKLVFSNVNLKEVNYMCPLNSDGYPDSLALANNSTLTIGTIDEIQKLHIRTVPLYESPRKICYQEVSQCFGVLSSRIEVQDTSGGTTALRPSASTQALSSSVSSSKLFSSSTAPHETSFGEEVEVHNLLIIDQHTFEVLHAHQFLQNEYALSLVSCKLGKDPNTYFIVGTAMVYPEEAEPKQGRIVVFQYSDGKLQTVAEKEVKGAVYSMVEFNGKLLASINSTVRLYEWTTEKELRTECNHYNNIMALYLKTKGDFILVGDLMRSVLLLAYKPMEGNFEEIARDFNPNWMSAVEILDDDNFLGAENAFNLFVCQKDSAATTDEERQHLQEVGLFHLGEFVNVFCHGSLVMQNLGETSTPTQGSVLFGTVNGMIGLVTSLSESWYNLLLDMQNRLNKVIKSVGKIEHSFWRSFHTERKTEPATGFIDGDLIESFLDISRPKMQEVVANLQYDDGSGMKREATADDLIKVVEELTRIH
Experimental: (§1) MV-4-11 cells were grown in RPMI 1640 media supplemented with 10% fetal bovine serum, streptomycin and penicillin.
(§2) Cells were cultured at approximately 10^6 cells per mL and incubated in DMSO or the indicated compound for 6-8 h. Whole cell extracts were prepared using RIPA buffer according to manufacturer's protocol (Pierce). Briefly, 3×10^6 cells were washed once in PBS, the cell pellets were resuspended in RIPA buffer and allowed to incubate for 15 minutes on ice. Cells debris was removed by centrifugation and the cleared whole cell lysates were transferred to new tubes for further analysis.
(§3) For Western blot analysis, whole cell protein extracts were separated on 4-12% SDS-polyacrylamide gels, transferred to nitrocellulose and probed with the indicated primary antibodies. Membranes were subsequently washed and probed with the appropriate IRDye secondary antibodies (LI-COR). The signal was detected using the Odyssey Imaging System (LI-COR).
(§4) The following antibodies were used in these studies: Anti-eRF3/GSPT1: Abcam, ab126090 (Cambridge, Mass.); Anti-Ikaros: Abcam, ab191394 (Cambridge, Mass.); Anti-CK1α: Abcam, ab108296 (Cambridge, Mass.); Anti-CDK9: Santa Cruz Biotechnology, sc13130 (Dallas, Tex.); Anti-CDK16: Millipore Sigma, HPA001366 (St. Louis, Mo.); 3-actin (8H10comD10) mouse monoclonal antibody: Cell Signaling Technology, #3700 (Danvers, Mass.); IRDye 680RD Goat anti-rabbit antibody: LI-COR, 926-68071 (Lincoln, Nebr.); IRDye 800CW Goat anti-mouse antibody: LI-COR, 926-32210 (Lincoln, Nebr.).
(§5) CDK9 activities are shown in Table 4 at two different concentrations. CDK16 activities are shown in Table 5 at two different concentrations. In each of Tables 1-5, the % degradation values are reported as “A”, “B”, “C”, or “D”. “A” represents a % degradation value of less than 25% (value <25%). “B” represents a % degradation value of equal to or more than 25% and less than 50% (25%≤value<50%). “C” represents a % degradation value of equal to or more than 50% and less than 75% (50%≤value<75%). “D” represents a % degradation value of equal to or more than 75% (value ≥75%).

GSPT1 = target: T2, GSPT1 (Homo sapiens, UniProt P15170+Q96SW2); test: GSPT1 degradation assay (Western blot, MV-4-11 cells); conditions: MV4-11, 6-8 h
T2 construct: Whole cell extracts were prepared using RIPA buffer; endogenous in cells; host or cells: MV-4-11
T2 sequence (P15170 whole entry): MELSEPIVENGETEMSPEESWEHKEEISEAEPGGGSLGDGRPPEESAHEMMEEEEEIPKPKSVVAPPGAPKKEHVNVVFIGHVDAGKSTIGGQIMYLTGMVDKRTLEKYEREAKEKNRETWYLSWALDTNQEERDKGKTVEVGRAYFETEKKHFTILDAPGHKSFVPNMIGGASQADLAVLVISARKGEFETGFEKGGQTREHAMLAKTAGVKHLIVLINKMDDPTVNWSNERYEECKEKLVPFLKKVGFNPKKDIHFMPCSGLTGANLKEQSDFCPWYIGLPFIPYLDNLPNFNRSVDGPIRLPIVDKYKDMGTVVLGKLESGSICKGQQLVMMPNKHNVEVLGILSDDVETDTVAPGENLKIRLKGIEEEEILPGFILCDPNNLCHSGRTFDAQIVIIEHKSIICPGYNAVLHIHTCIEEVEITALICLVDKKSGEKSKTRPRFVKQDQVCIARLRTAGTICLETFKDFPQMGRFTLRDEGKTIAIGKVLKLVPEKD
T2 sequence (Q96SW2 whole entry): as the sequence (Q96SW2 whole entry) above
T2 sequence (Q16531 whole entry partner): as the sequence (Q16531 whole entry partner) above
Experimental: as §1, §2, §3, §4, §5

IL-6 = IL-6 inhibition assay, LPS-induced PBMCs / CD14+ monocytes (Meso Scale); conditions: 1 h pretreatment, 100 ng/mL LPS 18-24 h
Experimental: (§6) Either frozen primary blood mononuclear cells (PBMCs) or frozen CD14+ mobilized peripheral blood monocytes were purchased from AllCells (PB003F, Normal Peripheral Blood MNC (Alameda, Calif.)). Cells were quick thawed, washed 1-time with RPMI-1640 (10% FBS/1% Pen-Strep) and plated in 96 well plates at 200,000 cells per well. Cells were pretreated with DMSO only or with the indicated compound for 1 h and then induced with 100 ng/mL lipopolysaccharide (LPS) for 18-24 h. The supernatant was analyzed for IL-1β, IL-6, and TNFα, using Meso Scale assay according to manufacturer's protocol. The negative control wells were treated with DMSO.
(§7) In Table 6, the % inhibition values are reported as “A”, “B”, “C”, or “D”. “A” represents a % inhibition value of less than 50% (value <50%). “B” represents a % inhibition value of equal to or more than 50% and less than 70% (50%≤value<70%). “C” represents a % inhibition value of equal to or more than 70% and less than 90% (70%≤value<90%). “D” represents a % inhibition value of equal or more than 90% (value ≥90%). In Table 7, the fold-change values are reported as “A”, “B”, “C”, or “D”. “A” represents a fold-change value of equal to or less than 0.1 (value ≤0.1). “B” represents a fold-change value of more than 0.1 and equal to or less than 0.5 (0.1<value≤0.5). “C” represents a fold-change value of more than 0.5 and equal to or less than 1 (0.5<value≤1). “D” represents a fold-change value of more than 1 (value >1).

IL-1β = IL-1β inhibition assay, LPS-induced PBMCs / CD14+ monocytes (Meso Scale); conditions: 1 h pretreatment, 100 ng/mL LPS 18-24 h
Experimental: as §6, §7

TNF-α = TNF-α inhibition assay, LPS-induced PBMCs / CD14+ monocytes (Meso Scale); conditions: 1 h pretreatment, 100 ng/mL LPS 18-24 h
Experimental: as §6, §7

CDK9 = target: T3, CDK9 (Homo sapiens, UniProt P50750); test: CDK9 degradation assay (Western blot, MV-4-11 cells); conditions: 6-8 h; for Dmax at 0.1 µM: MV4-11, 0.1 μM; for Dmax at 1 µM: MV4-11, 1 μM
T3 construct: Whole cell extracts were prepared using RIPA buffer; endogenous in cells; host or cells: MV-4-11
T3 sequence (P50750 whole entry): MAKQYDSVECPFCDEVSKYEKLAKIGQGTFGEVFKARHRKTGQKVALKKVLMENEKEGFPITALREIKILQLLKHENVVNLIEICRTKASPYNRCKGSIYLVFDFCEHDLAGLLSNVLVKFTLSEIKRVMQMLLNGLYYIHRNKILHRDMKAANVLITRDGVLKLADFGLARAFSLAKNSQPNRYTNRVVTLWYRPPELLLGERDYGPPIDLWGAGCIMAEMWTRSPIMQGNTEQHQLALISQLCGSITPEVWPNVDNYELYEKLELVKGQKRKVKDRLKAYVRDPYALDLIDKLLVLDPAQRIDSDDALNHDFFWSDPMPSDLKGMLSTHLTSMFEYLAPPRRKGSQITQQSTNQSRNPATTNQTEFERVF
Experimental: as §1, §2, §3, §4, §5

CDK16 = target: T4, CDK16 (Homo sapiens, UniProt Q00536); test: CDK16 degradation assay (Western blot, MV-4-11 cells); conditions: 6-8 h; for Dmax at 1 µM: MV4-11, 1 μM; for Dmax at 0.1 µM: MV4-11, 0.1 μM
T4 construct: Whole cell extracts were prepared using RIPA buffer; endogenous in cells; host or cells: MV-4-11
T4 sequence (Q00536 whole entry): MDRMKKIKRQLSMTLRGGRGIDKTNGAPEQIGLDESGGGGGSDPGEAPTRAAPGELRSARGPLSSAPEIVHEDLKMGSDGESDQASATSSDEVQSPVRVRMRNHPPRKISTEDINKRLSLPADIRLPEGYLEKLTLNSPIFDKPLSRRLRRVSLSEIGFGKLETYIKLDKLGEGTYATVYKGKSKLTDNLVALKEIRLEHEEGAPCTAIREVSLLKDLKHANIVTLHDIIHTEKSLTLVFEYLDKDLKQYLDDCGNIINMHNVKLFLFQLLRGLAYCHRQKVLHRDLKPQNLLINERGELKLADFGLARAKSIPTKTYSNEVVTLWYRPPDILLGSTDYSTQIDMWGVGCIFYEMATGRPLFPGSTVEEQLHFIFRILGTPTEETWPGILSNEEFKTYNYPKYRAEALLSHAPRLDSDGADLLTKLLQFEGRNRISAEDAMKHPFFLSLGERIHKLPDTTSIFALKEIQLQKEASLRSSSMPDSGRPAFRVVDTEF
Experimental: as §1, §2, §3, §4, §5

SMILES	viability at 1 µM (MOLM-13 cells)	Dmax at 1 µM (IKAROS)	Dmax at 1 µM (GSPT1)	inhibition at 1 µM (IL-6)	inhibition at 1 µM (IL-1β)	inhibition at 1 µM (TNF-α)	Dmax at 0.1 µM (CDK9)	Dmax at 1 µM (CDK9)	Dmax at 1 µM (CDK16)	Dmax at 0.1 µM (CDK16)
CC(C)(C)c1cnc(CSc2cnc(NC(=O)C3CCN(CCCCCCCCNC(=O)NCc4cc5c(s4)C(=O)N(C4CCC(=O)NC4=O)C5)CC3)s2)o1 (centres unmarked) [Compound 20, N-(5-(((5-(tert-butyl)oxazol-2-yl)methyl)thio)thiazol-2-yl)-1-(8-(3-((5-(2,6-dioxopiperidin-3-yl)-6-oxo-5,6-dihydro-4H-thieno[2,3-c]pyrrol-2-yl)methyl)ureido)octyl)piperidine-4-carboxamide]	> 90%	50 to 75%	–	–	–	–	–	–	–	–
CC(C)(C)c1cnc(CSc2cnc(NC(=O)C3CCN(CC(=O)NCCOCCOCCOCCNc4cccc5c4C(=O)N(C4CCC(=O)NC4=O)C5=O)CC3)s2)o1 (centres unmarked) [Compound 10, N-(5-(((5-(tert-butyl)oxazol-2-yl)methyl)thio)thiazol-2-yl)-1-(14-((2-(2,6-dioxopiperidin-3-yl)-1,3-dioxoisoindolin-4-yl)amino)-2-oxo-6,9,12-trioxa-3-azatetradecyl)piperidine-4-carboxamide]	–	50 to 75%	–	–	–	–	–	–	–	–
Cn1ncc(-c2nc(NC3CCC(NC(=O)CCCCCCNC(=O)NCc4scc5c4CN(C4CCC(=O)NC4=O)C5=O)CC3)ncc2Cl)c1CC1CC1 (centres unmarked) [Compound 4, 3-[2-({3-[7-(4-{5-Chloro-4-[5-(cyclopropylmethyl)-1-methyl-1H-pyrazol-4-yl]-2-pyrimidinylamino}cyclohexylamino)-7-oxoheptyl]ureido}methyl)-6-oxo-3-thia-7-azabicyclo[3.3.0]octa-1,4-dien-7-yl]-2,6-piperidinedione]	> 90%	–	25 to 50%	–	–	–	–	–	–	–
Cn1ncc(-c2nc(N[C@H]3CC[C@H](NC(=O)CCCCCCNC(=O)NCc4cc5c(s4)C(=O)N(C4CCC(=O)NC4=O)C5)CC3)ncc2Cl)c1CC1CC1 (some centres unmarked) [Compound 5, N-((1r,4r)-4-((5-chloro-4-(5-(cyclopropylmethyl)-1-methyl-1H-pyrazol-4-yl)pyrimidin-2-yl)amino)cyclohexyl)-7-(3-((5-(2,6-dioxopiperidin-3-yl)-6-oxo-5,6-dihydro-4H-thieno[2,3-c]pyrrol-2-yl)methyl)ureido)heptanamide]	> 90%	–	–	> 90%	> 90%	70 to 90%	–	–	–	–
CC(C)(C)c1cnc(CSc2cnc(NC(=O)C3CCN(CCOCCOCCNC(=O)NCc4cc5c(s4)C(=O)N(C4CCC(=O)NC4=O)C5)CC3)s2)o1 (centres unmarked) [Compound 19, N-(5-(((5-(tert-butyl)oxazol-2-yl)methyl)thio)thiazol-2-yl)-1-(1-(5-(2,6-dioxopiperidin-3-yl)-6-oxo-5,6-dihydro-4H-thieno[2,3-c]pyrrol-2-yl)-3-oxo-7,10-dioxa-2,4-diazadodecan-12-yl)piperidine-4-carboxamide]	70 to 90%	–	–	> 90%	> 90%	70 to 90%	–	–	–	–
Cn1ncc(-c2nc(N[C@H]3CC[C@H](NCC(=O)NCCCCCNCC(=O)NCc4cc5c(s4)C(=O)N(C4CCC(=O)NC4=O)C5)CC3)ncc2F)c1CC1CC1 (some centres unmarked) [Compound 25, 2-(((1r,4r)-4-((4-(5-(cyclopropylmethyl)-1-methyl-1H-pyrazol-4-yl)-5-fluoropyrimidin-2-yl)amino)cyclohexyl)amino)-N-(5-((2-(((5-(2,6-dioxopiperidin-3-yl)-6-oxo-5,6-dihydro-4H-thieno[2,3-c]pyrrol-2-yl)methyl)amino)-2-oxoethyl)amino)pentyl)acetamide]	> 90%	25 to 50%	–	–	–	–	50 to 75%	50 to 75%	50 to 75%	–
Cn1ncc(-c2nc(N[C@H]3CC[C@H](NCCCCCCNC(=O)NCc4cc5c(s4)C(=O)N(C4CCC(=O)NC4=O)C5)CC3)ncc2Cl)c1CC1CC1 (some centres unmarked) [Compound 24, 1-(6-(((1r,4r)-4-((5-chloro-4-(5-(cyclopropylmethyl)-1-methyl-1H-pyrazol-4-yl)pyrimidin-2-yl)amino)cyclohexyl)amino)hexyl)-3-((5-(2,6-dioxopiperidin-3-yl)-6-oxo-5,6-dihydro-4H-thieno[2,3-c]pyrrol-2-yl)methyl)urea]	> 90%	25 to 50%	–	–	–	–	50 to 75%	≥ 75%	≥ 75%	50 to 75%
Cn1ncc(-c2nc(N[C@H]3CC[C@H](NCC(=O)NCCCCNCC(=O)NCc4cc5c(s4)C(=O)N(C4CCC(=O)NC4=O)C5=O)CC3)ncc2Cl)c1CC1CC1 (some centres unmarked) [Compound 36, 2-(((1r,4r)-4-((5-chloro-4-(5-(cyclopropylmethyl)-1-methyl-1H-pyrazol-4-yl)pyrimidin-2-yl)amino)cyclohexyl)amino)-N-(4-((2-(((5-(2,6-dioxopiperidin-3-yl)-4,6-dioxo-5,6-dihydro-4H-thieno[2,3-c]pyrrol-2-yl)methyl)amino)-2-oxoethyl)amino)butyl)acetamide]	50 to 70%	–	–	70 to 90%	70 to 90%	70 to 90%	< 25%	25 to 50%	25 to 50%	< 25%
CC(C)(C)c1cnc(CSc2cnc(NC(=O)C3CCN(CC(=O)NCCCCCNC(=O)NCc4cc5c(s4)C(=O)N(C4CCC(=O)NC4=O)C5=O)CC3)s2)o1 (centres unmarked) [Compound 27, N-(5-(((5-(tert-butyl)oxazol-2-yl)methyl)thio)thiazol-2-yl)-1-(2-((5-(3-((5-(2,6-dioxopiperidin-3-yl)-4,6-dioxo-5,6-dihydro-4H-thieno[2,3-c]pyrrol-2-yl)methyl)ureido)pentyl)amino)-2-oxoethyl)piperidine-4-carboxamide]	> 90%	25 to 50%	–	–	–	–	–	–	–	–
CN(CCNCC(=O)NCc1scc2c1CN(C1CCC(=O)NC1=O)C2=O)CCNC(=O)CN1CCC(C(=O)Nc2ncc(SCc3ncc(C(C)(C)C)o3)s2)CC1 (centres unmarked) [Compound 44, N-(5-(((5-(tert-butyl)oxazol-2-yl)methyl)thio)thiazol-2-yl)-1-(1-(5-(2,6-dioxopiperidin-3-yl)-4-oxo-5,6-dihydro-4H-thieno[3,4-c]pyrrol-1-yl)-8-methyl-3,12-dioxo-2,5,8,11-tetraazatridecan-13-yl)piperidine-4-carboxamide]	50 to 70%	–	–	< 50%	50 to 70%	50 to 70%	–	–	–	–
